Consider 1 molecule from US5821231A, “CS-1 peptidomimetics, compositions and methods of using same” (Cytel Corporation, priority 1995, dated 1998).

Square brackets hold non-standard residues; d marks the D form. Peptide text beside a SMILES is read from it. * marks the point of attachment. PhAc = O=C(Cc1ccccc1)*

For one experiment, the system named is BALB/c mice. Kind of experiment: Adoptive transfer delayed type hypersensitivity in mice (oxazolone). It is filed as in vivo, mouse. Conditions: initial study; 6 mg/kg/day s.c. pump, 24-hour; FIG. 5. As for the experimental part: An adoptive transfer delayed-type hypersensitivity murine model has been developed using splenic T cells primed to oxazolone. This model is described in Elices et al., Clin. Exp. Rheum., 11(Suppl. 8):577-580 (1993), whose procedures were followed here.
Thus, BALB/c mice were shaved on the belly and painted (50 μl on the belly and 5 μl on each paw) with three percent oxazolone in acetone/olive oil (4:1) at days zero and 1. At day 5, the mice were sacrificed, their spleens removed, and splenic T cells were obtained via nylon wool columns.
Normal saline or saline containing 25×10^6 /animal of the oxazolone-immune T cells were separately injected into naive mice. The mice were then challenged by painting 10 μl of 2 percent oxazolone onto one ear each. All procedures were carried out under sterile conditions and in endotoxin-free buffers.
Prior to challenge or saline injection, the mice were implanted with pumps that subcutaneously administered normal saline, normal saline containing the compound, Compound ID No. 896.52, N-phenylacetyl-Leu-Asp-Phe-D-Pro-NH2, or normal saline containing a compound with a scrambled sequence continually at 6 mg/kg/day for a 24-hour time period. The swelling diameter at the site of challenge or saline injection was measured with a microcaliper 24 hours thereafter.
An expanded study was carried out as described above except that a scrambled compound control was not used as a control for further inhibitor compounds of Table 1 with larger groups of mice. Statistical analyses were carried out versus injection of vehicle alone.

Experiment [1] relates to New Zealand white rabbits. Kind of experiment: Rabbit heterotopic cardiac allograft model. It is filed as in vivo. An excerpt: New Zealand white female rabbits (Charles River Lab., Saint Laurent, Quebec), between 3.5 and 4 kg underwent heterotopic cardiac transplant following an experimental protocol previously described [Alonso et al., Am. J. Pathol., 87:415-442 (1977); Clausell et al., Circulation, 89:2768-2779 (1994)]. The animals were unselected to favor an HLA-mismatch, the host rabbits were Pasteurella-free and the donors, outbred animals. Both host and donor rabbits were fed Purina 5321-0.5 percent cholesterol diet (Research Diets Inc., New Brunswick, N.J.), a strategy that has proven useful in accelerating the process of allograft arteriopathy [Alonso et al., Am, J. Pathol., 87:415-442 (1977)]. The diet was commenced four days prior to the transplant and continued in the recipient of the transplant until the completion of the experimental period.
The technique of heterotopic cardiac transplantation has been previously described [Clausell et al., Circulation, 89:2768-2779 (1994)]. Briefly, a vertical incision was performed in the anterior aspect of the neck of the recipient rabbit and the left common carotid artery and the ipsilateral external jugular vein were isolated. The cardiac allograft was placed in the neck by anastomosing the aorta end-to-side to the recipient's carotid artery and the pulmonary end-to-side to the recipient's external jugular vein, following a total period of ischemia for the donor hearts of approximately 30 minutes. Postoperative care was in compliance with the Principles of Laboratory Animal Care formulated by the Canadian National Society for Medical Research.
Beginning the day of the transplant, the animals were randomized and treated with either scrambled compound (control group) at 1 mg/kg s.c. or the inhibitor compound at 1 mg/kg s.c. The doses of the compounds were empirically extrapolated to the in vivo model based on preliminary in vitro studies, of Table 1. No other immunosuppression therapy was administered. The grafts were monitored daily by palpation and maintained for 7 to 8 days, a previously described endpoint that was associated with myocardial rejection (impaired cardiac contractility) and development of the allograft arteriopathy in this model [Clausell et al., Circulation, 89:2768-2779 (1994)]. A total of fourteen animals were studied in the control (n=7) and treated (n=7) groups.
The animals were sacrificed using a lethal dose of euthanol (480 mg i.v.) (MTC Pharmaceutical, Cambridge, ON), host and donor hearts were removed, and the coronary arteries were perfused with saline through the aorta, followed by light fixation by perfusion with 2 percent paraformaldehyde (Sigma, St, Louis, Mo.). […] Different sections of the hearts were either saved in 10 percent formalin (BDH Inc., Toronto, ON) for light microscopy studies or immediately frozen in O.T.C. Compound Tissue Tek (Miles Inc., Elkart, Ind.) for specific immunohistochemistry studies.
Three different paraffin-embedded tissue sections from host and donor hearts from both control and treated rabbits were stained by the Movat pentachrome method for light microscopy. Morphometric analysis was performed using a Zeiss microscope attached to a computer-generated video analysis system (Perceptics Inc., NuVision software), as described in Clausell et al., Circulation, 89:2768-2779 (1994). The number of vessels with intimal lesions were counted in all three heart sections from each animal studied and are expressed as a percentage of the total vessel number.
In the host hearts, 999 vessels in the control group and 1054 vessels in the treated group were analyzed. In the donor hearts, 827 vessels in the control group and 617 vessels in the treated group were analyzed. To determine the severity of intimal thickening, the diameter of each traceable vessel in all three sections was measured and the coronary arteries were categorized as small (diameter <100 μm), medium (diameter >100<500 μm) and large (diameter >500 μm). […]

In the case of `CC(C)C[C@H](NC(=O)[C@H](CC(=O)O)NC(=O)Cc1ccccc1)C(=O)N[C@@H](Cc1ccccc1)C(=O)N1CCC[C@@H]1C(N)=O` [N-phenylacetyl-Asp-Leu-Phe-D-Pro-NH2, reference compound] (PhAc-DLF[dP]-NH2), in the experiment on BALB/c mice, the “reduction of inflammation (swelling diameter at challenge site)” value was “no reduction of inflammation”. In experiment [1] (donor heart, 1 mg/kg s.c.), the “Vessel Intimal Thickening: Percent of Vessels” value is listed as 88% and the “Vessel Intimal Thickening: Severity (Percent of Vessel area)” value stood at 36%. For the same molecule, in experiment [1] (rabbit own host heart), the “Baseline of incidence of intimal thickening” value is given as 1% and the “Baseline of severity of intimal thickening” value is on record as 12%.
